Test results: the NIST ThermoML archive (doi:10.1021/je401120a)

Assay: xn = mol fraction of the nth substance listed
Conditions: 101 kPa, Liquid; for electrical conductivity: Crison conductimeter (model GLP31); for speed of sound: Pulse-echo method; for mass density: Vibrating tube method

CCC[n+]1ccccc1.F[B-](F)(F)F [1-propylpyridinium tetrafluoroborate] + CO
Conditions	electrical conductivity [S/m]	mass density [kg/m3]	speed of sound [m/s]	viscosity [mPa·s]
293.15 K, x1 = 0.028	–	846.441	1164.9	–
293.15 K, x1 = 0.0313	2.58	–	–	–
293.15 K, x1 = 0.0365	2.84	–	–	–
293.15 K, x1 = 0.0422	3.07	–	–	–
293.15 K, x1 = 0.0505	–	–	–	1.267
293.15 K, x1 = 0.0577	–	893.625	1208.5	–
293.15 K, x1 = 0.0658	3.66	–	–	–
293.15 K, x1 = 0.0775	3.86	–	–	–
293.15 K, x1 = 0.0894	4.05	–	–	–
293.15 K, x1 = 0.0967	–	944.389	1257.2	–
293.15 K, x1 = 0.0993	–	–	–	2.52
293.15 K, x1 = 0.1294	4.37	–	–	–
293.15 K, x1 = 0.1409	4.4	–	–	–
293.15 K, x1 = 0.1459	–	995.788	1311.1	–
293.15 K, x1 = 0.1703	4.48	–	–	–
293.15 K, x1 = 0.191	–	–	–	5.73
293.15 K, x1 = 0.1952	–	1036.49	1362.9	–
293.15 K, x1 = 0.2002	4.41	–	–	–
293.15 K, x1 = 0.2456	4.22	–	–	–
293.15 K, x1 = 0.2819	3.93	–	–	–
293.15 K, x1 = 0.291	–	–	–	9.737
293.15 K, x1 = 0.3213	–	1110.62	1458	–
293.15 K, x1 = 0.3507	3.46	–	–	–
293.15 K, x1 = 0.3918	–	–	–	14.39
293.15 K, x1 = 0.3937	3.13	–	–	–
293.15 K, x1 = 0.4002	–	1143.05	1496.5	–
293.15 K, x1 = 0.4334	2.77	–	–	–
293.15 K, x1 = 0.464	2.55	–	–	–
293.15 K, x1 = 0.4929	–	–	–	20.26
293.15 K, x1 = 0.4965	–	1173.27	1541.5	–
293.15 K, x1 = 0.5398	1.98	–	–	–
293.15 K, x1 = 0.5988	–	1198.33	1575.7	–
293.15 K, x1 = 0.6117	–	–	–	29.28
293.15 K, x1 = 0.635	1.46	–	–	–
293.15 K, x1 = 0.6904	–	1216.19	1598.4	–
293.15 K, x1 = 0.7331	–	–	–	46.22
293.15 K, x1 = 0.7918	0.639	–	–	–
293.15 K, x1 = 0.7923	–	–	–	61.38
293.15 K, x1 = 0.8011	–	1233.62	1621.5	–
293.15 K, x1 = 0.8425	–	–	–	77.91
293.15 K, x1 = 0.8824	–	1244.23	1637.1	–
293.15 K, x1 = 0.894	0.422	–	–	–
293.15 K, x1 = 0.8956	–	–	–	99.92
293.15 K, x1 = 0.9384	0.355	–	–	–
293.15 K, x1 = 0.94	–	1250.69	1646.4	–
293.15 K, x1 = 0.9447	–	–	–	125.55
293.15 K, x1 = 1	0.302	1256.67	1653.9	160
303.15 K, x1 = 0.028	–	837.96	1134.5	–
303.15 K, x1 = 0.0313	2.99	–	–	–
303.15 K, x1 = 0.0365	3.28	–	–	–
303.15 K, x1 = 0.0422	3.59	–	–	–
303.15 K, x1 = 0.0505	–	–	–	0.9388
303.15 K, x1 = 0.0577	–	885.479	1179.8	–
303.15 K, x1 = 0.0658	4.29	–	–	–
303.15 K, x1 = 0.0775	4.56	–	–	–
303.15 K, x1 = 0.0894	4.84	–	–	–
303.15 K, x1 = 0.0967	–	936.347	1230.9	–
303.15 K, x1 = 0.0993	–	–	–	1.76
303.15 K, x1 = 0.1294	5.15	–	–	–
303.15 K, x1 = 0.1409	5.25	–	–	–
303.15 K, x1 = 0.1459	–	987.6	1286.2	–
303.15 K, x1 = 0.1703	5.38	–	–	–
303.15 K, x1 = 0.191	–	–	–	3.674
303.15 K, x1 = 0.1952	–	1028.35	1339.4	–
303.15 K, x1 = 0.2002	5.35	–	–	–
303.15 K, x1 = 0.2456	5.16	–	–	–
303.15 K, x1 = 0.2819	4.8	–	–	–
303.15 K, x1 = 0.291	–	–	–	6.277
303.15 K, x1 = 0.3213	–	1102.55	1433.2	–
303.15 K, x1 = 0.3507	4.31	–	–	–
303.15 K, x1 = 0.3918	–	–	–	8.954
303.15 K, x1 = 0.3937	3.94	–	–	–
303.15 K, x1 = 0.4002	–	1135.04	1477.2	–
303.15 K, x1 = 0.4334	3.52	–	–	–
303.15 K, x1 = 0.464	3.16	–	–	–
303.15 K, x1 = 0.4929	–	–	–	12.66
303.15 K, x1 = 0.4965	–	1165.53	1516.7	–
303.15 K, x1 = 0.5398	2.59	–	–	–
303.15 K, x1 = 0.5988	–	1190.7	1550.9	–
303.15 K, x1 = 0.6117	–	–	–	18.63
303.15 K, x1 = 0.635	2.01	–	–	–
303.15 K, x1 = 0.6904	–	1208.71	1574	–
303.15 K, x1 = 0.7331	–	–	–	29.44
303.15 K, x1 = 0.7918	1.04	–	–	–
303.15 K, x1 = 0.7923	–	–	–	38
303.15 K, x1 = 0.8011	–	1226.21	1597.3	–
303.15 K, x1 = 0.8425	–	–	–	47.82
303.15 K, x1 = 0.8824	–	1236.99	1612.7	–
303.15 K, x1 = 0.894	0.702	–	–	–
303.15 K, x1 = 0.8956	–	–	–	59.95
303.15 K, x1 = 0.9384	0.625	–	–	–
303.15 K, x1 = 0.94	–	1243.5	1622.4	–
303.15 K, x1 = 0.9447	–	–	–	73.49
303.15 K, x1 = 1	0.516	1249.54	1629.8	90.75
313.15 K, x1 = 0.028	–	829.037	1104.3	–
313.15 K, x1 = 0.0313	3.41	–	–	–
313.15 K, x1 = 0.0365	3.77	–	–	–
313.15 K, x1 = 0.0422	4.13	–	–	–
313.15 K, x1 = 0.0505	–	–	–	0.7578
313.15 K, x1 = 0.0577	–	876.892	1151.5	–
313.15 K, x1 = 0.0658	4.95	–	–	–
313.15 K, x1 = 0.0775	5.27	–	–	–
313.15 K, x1 = 0.0894	5.59	–	–	–
313.15 K, x1 = 0.0967	–	927.831	1204.8	–
313.15 K, x1 = 0.0993	–	–	–	1.273
313.15 K, x1 = 0.1294	6.03	–	–	–
313.15 K, x1 = 0.1409	6.12	–	–	–
313.15 K, x1 = 0.1459	–	979.474	1261.3	–
313.15 K, x1 = 0.1703	6.3	–	–	–
313.15 K, x1 = 0.191	–	–	–	2.523
313.15 K, x1 = 0.1952	–	1020.19	1314.3	–
313.15 K, x1 = 0.2002	6.26	–	–	–
313.15 K, x1 = 0.2456	6.05	–	–	–
313.15 K, x1 = 0.2819	5.68	–	–	–
313.15 K, x1 = 0.291	–	–	–	4.303
313.15 K, x1 = 0.3213	–	1094.6	1409.3	–
313.15 K, x1 = 0.3507	5.15	–	–	–
313.15 K, x1 = 0.3918	–	–	–	6.052
313.15 K, x1 = 0.3937	4.76	–	–	–
313.15 K, x1 = 0.4002	–	1127.34	1453.2	–
313.15 K, x1 = 0.4334	4.32	–	–	–
313.15 K, x1 = 0.464	3.91	–	–	–
313.15 K, x1 = 0.4929	–	–	–	8.501
313.15 K, x1 = 0.4965	–	1157.84	1492.7	–
313.15 K, x1 = 0.5398	3.26	–	–	–
313.15 K, x1 = 0.5988	–	1183.22	1527.3	–
313.15 K, x1 = 0.6117	–	–	–	12.48
313.15 K, x1 = 0.635	2.5	–	–	–
313.15 K, x1 = 0.6904	–	1201.32	1550.3	–
313.15 K, x1 = 0.7331	–	–	–	20
313.15 K, x1 = 0.7918	1.5	–	–	–
313.15 K, x1 = 0.7923	–	–	–	25.3
313.15 K, x1 = 0.8011	–	1218.9	1573.6	–
313.15 K, x1 = 0.8425	–	–	–	31.76
313.15 K, x1 = 0.8824	–	1229.83	1589.4	–
313.15 K, x1 = 0.894	1.05	–	–	–
313.15 K, x1 = 0.8956	–	–	–	38.87
313.15 K, x1 = 0.9384	0.94	–	–	–
313.15 K, x1 = 0.94	–	1236.33	1598.5	–
313.15 K, x1 = 0.9447	–	–	–	46.64
313.15 K, x1 = 1	0.799	1242.43	1606.3	56.02
323.15 K, x1 = 0.028	–	820.035	1073.8	–
323.15 K, x1 = 0.0313	3.87	–	–	–
323.15 K, x1 = 0.0365	4.25	–	–	–
323.15 K, x1 = 0.0422	4.68	–	–	–
323.15 K, x1 = 0.0505	–	–	–	0.673
323.15 K, x1 = 0.0577	–	867.868	1123.5	–
323.15 K, x1 = 0.0658	5.62	–	–	–
323.15 K, x1 = 0.0775	6	–	–	–
323.15 K, x1 = 0.0894	6.37	–	–	–
323.15 K, x1 = 0.0967	–	918.92	1178.7	–
323.15 K, x1 = 0.0993	–	–	–	1.009
323.15 K, x1 = 0.1294	6.98	–	–	–
323.15 K, x1 = 0.1409	7.05	–	–	–
323.15 K, x1 = 0.1459	–	970.736	1237	–
323.15 K, x1 = 0.1703	7.23	–	–	–
323.15 K, x1 = 0.191	–	–	–	1.915
323.15 K, x1 = 0.1952	–	1011.68	1291	–
323.15 K, x1 = 0.2002	7.2	–	–	–
323.15 K, x1 = 0.2456	7	–	–	–
323.15 K, x1 = 0.2819	6.64	–	–	–
323.15 K, x1 = 0.291	–	–	–	3.255
323.15 K, x1 = 0.3213	–	1086.6	1385.4	–
323.15 K, x1 = 0.3507	6.05	–	–	–
323.15 K, x1 = 0.3918	–	–	–	4.475
323.15 K, x1 = 0.3937	5.63	–	–	–
323.15 K, x1 = 0.4002	–	1119.59	1429.5	–
323.15 K, x1 = 0.4334	5.12	–	–	–
323.15 K, x1 = 0.464	4.78	–	–	–
323.15 K, x1 = 0.4929	–	–	–	6.13
323.15 K, x1 = 0.4965	–	1150.3	1467.3	–
323.15 K, x1 = 0.5398	3.97	–	–	–
323.15 K, x1 = 0.5988	–	1175.76	1503.9	–
323.15 K, x1 = 0.6117	–	–	–	8.91
323.15 K, x1 = 0.635	3.15	–	–	–
323.15 K, x1 = 0.6904	–	1193.84	1527.1	–
323.15 K, x1 = 0.7331	–	–	–	14.27
323.15 K, x1 = 0.7918	1.96	–	–	–
323.15 K, x1 = 0.7923	–	–	–	18.12
323.15 K, x1 = 0.8011	–	1211.54	1550.5	–
323.15 K, x1 = 0.8425	–	–	–	22.39
323.15 K, x1 = 0.8824	–	1222.55	1566.5	–
323.15 K, x1 = 0.894	1.48	–	–	–
323.15 K, x1 = 0.8956	–	–	–	26.94
323.15 K, x1 = 0.9384	1.34	–	–	–
323.15 K, x1 = 0.94	–	1229.15	1575	–
323.15 K, x1 = 0.9447	–	–	–	31.72
323.15 K, x1 = 1	1.15	1235.31	1583.3	36.99
